# Legend:
# Hemp sesbania = Hemp sesbania control after glyphosate spray, by nozzle type and adjuvant; format: in vivo; details: 28 days after treatment with glyphosate (0.375 lb ae/ac)
# Description: (§1) The numbers in this table are percent control or percent kill of the weed.
# Velvetleaf = Velvetleaf control after glyphosate spray, by nozzle type and adjuvant; format: in vivo; details: 28 days after treatment with glyphosate (0.375 lb ae/ac)
# Description: as §1
structure (smiles),measurement,setting,value
O=C(O)CNCP(=O)(O)O [glyphosate],"Hemp sesbania control, InJet 110015 Nozzle","Hemp sesbania; Table 2, InJet 110015 nozzle",20%
same,"Hemp sesbania control, XR110015 Nozzle",Hemp sesbania; Table 2,41%
same,"Hemp sesbania control, DR 110015 Nozzle","Hemp sesbania; Table 6, DR 110015 nozzle",50%
same,"Hemp sesbania control, XR110015 Nozzle",Hemp sesbania; Table 6,67%
same,"Velvetleaf control, InJet 110015 Nozzle","Velvetleaf; Table 1, InJet 110015 nozzle",85%
same,"Velvetleaf control, XR110015 Nozzle",Velvetleaf; Table 1,83%
same,"Velvetleaf control, DR 110015 Nozzle","Velvetleaf; Table 5, DR 110015 nozzle",90%
same,"Velvetleaf control, XR110015 Nozzle",Velvetleaf; Table 5,87%

# Reference: patent US20060180677A1, “Agricultural compositions which enhance performance of pesticides applied through drift reducing nozzles” (priority 2005, published 2006)
